Measured values published in US12398120B2, “Substituted hydantoinamides as ADAMTS7 antagonists” (BAYER AKTIENGESELLSCHAFT, priority 2019, dated 2025).

Target: ADAMTS4 (Homo sapiens (Human), UniProt O75173)
Assay: Selectivity assay for ADAMTS-7 modulators: ADAMTS4 (FRET substrate)
Assay type: biochemical
Details: ADAMTS4 (R&D 4307-AD) 50 nM, substrate Dabcyl-EEVKAKVQPY-Glu(Edans)-NH2 1 μM, 120 min, 32° C.
Summary of the method: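 Human ADAMTS4 with compound in DMSO, or DMSO control; reaction started by adding FRET substrate in reaction buffer. Fluorescence increase measured at substrate-specific wavelengths. IC50 derived from % inhibition of enzyme activity versus compound concentration.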

Chain of ADAMTS4 (O75173 213-685): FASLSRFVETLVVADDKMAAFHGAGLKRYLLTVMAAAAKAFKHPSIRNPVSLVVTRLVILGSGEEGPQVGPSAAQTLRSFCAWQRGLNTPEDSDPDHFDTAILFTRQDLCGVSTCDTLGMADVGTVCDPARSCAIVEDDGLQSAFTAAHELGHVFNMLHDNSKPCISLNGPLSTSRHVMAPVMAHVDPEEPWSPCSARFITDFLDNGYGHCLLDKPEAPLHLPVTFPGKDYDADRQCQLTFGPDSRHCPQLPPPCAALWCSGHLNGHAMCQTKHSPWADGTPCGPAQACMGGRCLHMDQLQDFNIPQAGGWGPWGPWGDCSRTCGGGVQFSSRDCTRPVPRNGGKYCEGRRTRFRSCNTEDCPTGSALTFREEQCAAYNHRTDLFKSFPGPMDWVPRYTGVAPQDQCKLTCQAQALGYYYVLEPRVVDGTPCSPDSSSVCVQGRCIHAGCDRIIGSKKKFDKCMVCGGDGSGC

| SMILES | IC50 [nM] |
| --- | --- |
| Cc1ccc(-c2ccccc2C(=O)NCC2(c3nccn3C)NC(=O)NC2=O)cc1 (single isomer, unassigned; ent-4) [Example 146, Ent-4′-Methyl-N-{[4-(1-Methyl-1H-Imidazol-2-Yl)-2,5-Dioxoimidazolidin-4-Yl]Methyl}[Biphenyl]-2-Carboxamide] | 1900 |
| Cn1ccnc1C1(CNC(=O)c2ccccc2-c2ccc(Cl)cc2)NC(=O)NC1=O (single isomer, unassigned; ent-4) [Example 155, Ent-4′-Chloro-N-{[4-(1-Methyl-1H-Imidazol-2-Yl)-2,5-Dioxoimidazolidin-4-Yl]Methyl}[Biphenyl]-2-Carboxamide] | 5900 |
| Cn1ccnc1C1(CNC(=O)c2cc(F)ccc2-c2ccc(Cl)cc2)NC(=O)NC1=O (single isomer, unassigned; ent-4) [Example 160, Ent-4′-Chloro-4-Fluoro-N-{[4-(1-Methyl-1H-Imidazol-2-Yl)-2,5-Dioxoimidazolidin-4-Yl]Methyl}[Biphenyl]-2-Carboxamide] | 830 |
| Cc1scnc1C1(CNC(=O)c2cc(F)ccc2-c2ccc(C(F)(F)F)cc2)NC(=O)NC1=O (single isomer, unassigned; ent-4) [Example 166, Ent-4-Fluoro-N-{[4-(5-Methyl-1,3-Thiazol-4-Yl)-2,5-Dioxoimidazolidin-4-Yl]Methyl}-4′-(Trifluoromethyl)[Biphenyl]-2-Carboxamide] | 3250 |
| Cc1scnc1C1(CNC(=O)c2ccc(F)cc2-c2ccc(Cl)cc2)NC(=O)NC1=O (single isomer, unassigned; ent-4) [Example 170, Ent-4′-Chloro-5-Fluoro-N-{[4-(5-Methyl-1,3-Thiazol-4-Yl)-2,5-Dioxoimidazolidin-4-Yl]Methyl}[Biphenyl]-2-Carboxamide] | 4900 |

More lines, in order of falling IC50, values ahead:

| IC50 [nM] | SMILES |
| --- | --- |
| 25000 | Cn1ccnc1C1(CNC(=O)c2cc(Cl)ccc2-c2ccc(C(F)(F)F)cc2)NC(=O)NC1=O (single isomer, unassigned; ent-4) [Example 156, Ent-4-Chloro-N-{[4-(1-Methyl-1H-Imidazol-2-Yl)-2,5-Dioxoimidazolidin-4-Yl]Methyl}-4′-(Trifluoromethyl)[Biphenyl]-2-Carboxamide] |
| 3950 | Cn1ccnc1C1(CNC(=O)c2cc(F)c(F)cc2-c2ccc(C(F)(F)F)cc2)NC(=O)NC1=O (single isomer, unassigned; ent-4) [Example 154, Ent-4,5-Difluoro-N-{[4-(1-Methyl-1H-Imidazol-2-Yl)-2,5-Dioxoimidazolidin-4-Yl]Methyl}-4′-(Trifluoromethyl)[Biphenyl]-2-Carboxamide] |
| 3000 | Cn1ccnc1C1(CNC(=O)c2ccc(F)cc2-c2ccc(Cl)cc2)NC(=O)NC1=O (single isomer, unassigned; ent-4) [Example 157, Ent-4′-Chloro-5-Fluoro-N-{[4-(1-Methyl-1H-Imidazol-2-Yl)-2,5-Dioxoimidazolidin-4-Yl]Methyl}[Biphenyl]-2-Carboxamide] |
| 1150 | Cn1ccnc1C1(CNC(=O)c2cc(F)ccc2-c2ccc(C(F)(F)F)cc2)NC(=O)NC1=O (single isomer, unassigned; ent-4) [Example 149, Ent-4-Fluoro-N-{[4-(1-Methyl-1H-Imidazol-2-Yl)-2,5-Dioxoimidazolidin-4-Yl]Methyl}-4′-(Trifluoromethyl)[Biphenyl]-2-Carboxamide] |
| 705 | Cc1ccc(-c2ccc(F)cc2C(=O)NCC2(c3nccn3C)NC(=O)NC2=O)cc1 (single isomer, unassigned; ent-4) [Example 152, Ent-4-Fluoro-4′-Methyl-N-{[4-(1-Methyl-1H-Imidazol-2-Yl)-2,5-Dioxoimidazolidin-4-Yl]Methyl}[Biphenyl]-2-Carboxamide] |
| 463 | Cn1ccnc1C1(CNC(=O)c2ccc(Cl)cc2-c2ccc(Cl)cc2)NC(=O)NC1=O (single isomer, unassigned; ent-4) [Example 162, Ent-4′,5-Dichloro-N-{[4-(1-Methyl-1H-Imidazol-2-Yl)-2,5-Dioxoimidazolidin-4-Yl]Methyl}[Biphenyl]-2-Carboxamide] |
